Results published in patent US9763445B2, “Safened herbicidal compositions comprising a pyridine carboxylic acid herbicide” (Dow AgroSciences, LLC, priority 2014, dated 2017).

What was measured:
spring wheat (TRZAS) = assay: Postemergence greenhouse trial, % visual injury on spring wheat; assay type: in vivo, Triticum aestivum; conditions: TRZAS, applied alone
Procedure, shortened: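 Postemergence greenhouse spray (187 L/ha, 1.5% v/v Agri-dex in water, acetone/DMSO stocks) on plants at second–third true leaf stage, ~23/22 °C, 14 h photoperiod; herbicides in g ae/ha, safener cloquintocet-mexyl in g ai/ha. Visual injury 0–100% versus solvent-blank controls after 20–22 d; Colby's equation gave expected mixture effects.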

winter rape (BRSNW) = assay: Postemergence greenhouse trial, % visual injury on winter rape; assay type: in vivo, Brassica napus; conditions: Brassica napus, post-emergence, BRSNW, applied alone, read-out: % visual injury, Ob
Procedure, shortened: (§1)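 Plants at second or third true leaf stage, greenhouse-grown (14 h photoperiod, ~23/22° C.), sprayed postemergence with compounds alone or with safener cloquintocet-mexyl in 1.5% v/v Agri-dex crop oil at 187 L/ha. Visual injury scored 0–100% versus solvent-blank controls after 20-22 d; expected mixture effects by Colby's equation.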

lambsquarters (CHEAL) = assay: Postemergence greenhouse trial, % visual injury on lambsquarters; assay type: in vivo, Chenopodium album; conditions: Chenopodium album, post-emergence, CHEAL, applied alone, read-out: % visual injury, Ob
Procedure, shortened: as §1

kochia (KCHSC) = assay: Postemergence greenhouse trial, % visual injury on kochia; assay type: in vivo, Kochia scoparia; conditions: Bassia scoparia, post-emergence, KCHSC, applied alone, read-out: % visual injury, Ob
Procedure, shortened: (§2)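 Herbicide rates g ae/ha, safener (cloquintocet-mexyl) rates g ai/ha; spray carrier 1.5% v/v crop oil concentrate, 187 L/ha, 2nd–3rd leaf stage. Rating: visual % injury at 20-22 d.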

wild mustard (SINAR) = assay: Postemergence greenhouse trial, % visual injury on wild mustard; assay type: in vivo, Sinapis arvensis; conditions: Brassica, post-emergence, SINAR, applied alone, read-out: % visual injury, Ob
Procedure, shortened: as §2

Which results are given for `Nc1c(F)c(-c2ccc3scnc3c2)nc(C(=O)O)c1Cl` [compound 17]?
% visual injury, Ob (spring wheat (TRZAS); 4.375 g/ha): 0%; % visual injury, Ob (spring wheat (TRZAS); 8.75 g/ha): 15%; % visual injury, Ob (spring wheat (TRZAS); 17.5 g/ha): 30%; % visual injury, Ob (spring wheat (TRZAS); 35 g/ha): 40%; % visual injury, Ob (spring wheat (TRZAS); 70 g/ha): 45%; plant injury at 4.375 g/ha (winter rape (BRSNW); 4.375 g/ha): 60%; plant injury at 8.75 g/ha (winter rape (BRSNW); 8.75 g/ha): 90%; plant injury at 17.5 g/ha (winter rape (BRSNW); 17.5 g/ha): 95%; plant injury at 35 g/ha (winter rape (BRSNW); 35 g/ha): 95%; plant injury at 70 g/ha (winter rape (BRSNW); 70 g/ha): 97%; pest or weed control at 4.375 g/ha (lambsquarters (CHEAL); 4.375 g/ha): 40%; pest or weed control at 8.75 g/ha (lambsquarters (CHEAL); 8.75 g/ha): 60%; pest or weed control at 17.5 g/ha (lambsquarters (CHEAL); 17.5 g/ha): 70%; pest or weed control at 35 g/ha (lambsquarters (CHEAL); 35 g/ha): 80%; pest or weed control at 70 g/ha (lambsquarters (CHEAL); 70 g/ha): 85%; pest or weed control at 4.375 g/ha (kochia (KCHSC); 4.375 g/ha): 85%; pest or weed control at 8.75 g/ha (kochia (KCHSC); 8.75 g/ha): 90%; pest or weed control at 17.5 g/ha (kochia (KCHSC); 17.5 g/ha): 95%; pest or weed control at 35 g/ha (kochia (KCHSC); 35 g/ha): 100%; pest or weed control at 70 g/ha (kochia (KCHSC); 70 g/ha): 100%; pest or weed control at 4.375 g/ha (wild mustard (SINAR); 4.375 g/ha): 93%; pest or weed control at 8.75 g/ha (wild mustard (SINAR); 8.75 g/ha): 93%; pest or weed control at 17.5 g/ha (wild mustard (SINAR); 17.5 g/ha): 95%; pest or weed control at 35 g/ha (wild mustard (SINAR); 35 g/ha): 95%; pest or weed control at 70 g/ha (wild mustard (SINAR); 70 g/ha): 100%
